Test results from patent publication US20080069815A1, “ANTI-OSTEOPONTIN ANTIBODY AND USE THEREOF” (IMMUNO-BIOLOGICAL LABORATORIES CO., LTD., priority 2001, published 2008).

Key:
[1] = system: mouse collagen arthritis model; test: Mouse collagen arthritis model (arthritogenic antibody cocktail/LPS); type: in vivo; settings: for Arthritis score: 3.2 mg/kg orally once daily; for Volume of leg edema / Body weight change / Quantity of feed intake: 3.2 mg/kg
Protocol: For arthritis induction, an arthritogenic antibody cocktail (under the trade name of a cocktail for arthritis, Arthrogen-CIA® mAb, Arthritogenic mAb cocktail; manufactured by Iwai Chemical Pharmaceutical Co., Ltd.) recognizing four epitopes specific to collagen was used. To a mouse was intravenously administered the arthritogenic cocktail; 3 days later, LPS (100 μg) was intraperitoneally administered to thereby elicit arthritis. Arthritis was observed on day 3 after LPS dosing, which reached maximum on day 6.
Immediately before LPS dosing and 3 days later, the M5 antibody was intravenously administered at a dose of 40 μg, 150 μg or 400 μg. As the control group, a rabbit IgG-dosed group (at a dose of 400 μg) was arranged. Additionally, the anti-mouse TNF-α antibody was intravenously administered at a dose of 200 μg/mouse immediately before LPS administration and 3 days later. As the control group, a rat IgG-dosed group (at a dose of 200 μg) was arranged. Further, MTX was orally given (at a dose of 3.2 mg/kg) once daily on the very day of LPS dosing and thereafter. Then, MTX dissolved in 5 ml of 0.5% methyl cellulose solution was used. For the control group, 5 ml of 0.5% methyl cellulose solution was arranged.
Assessment was done per one group of five animals, concerning four items, namely arthritis score, leg edema, body weight change and feed intake.

[2] = system: human fibroblast TIG-7 adhesion to OPN; test: Inhibition of TIG-7 cell adhesion to OPN (CHO/OPN-a coated plate); type: cell-based; settings: peptide 100 μg/ml; FIG. 1A
Protocol: It was examined by the following method as to whether or not the monoclonal antibodies inhibited cell adhesion to OPN. First, a 96-well plate was precoated with various concentrations of the CHO/OPN-a at 4° C. overnight, which was then treated with 0.5% BSA in PBS under conditions of 37° C. for 10 minutes, so as to block non-specific adhesion. A human fibroblast TIG-7 or SW480 cell transformed with the cDNA of an integrin subunit α9 (referred to as “α9-transformed SW480 cell” hereinafter) was suspended in D-MEM containing 0.25% BSA; 200 μl of the resulting cell suspension (at a cell concentration of 5×10^4 cells/well) was injected in a 96-well plate precoated with the CHO/OPN-a or nOPN, in the presence or absence of various concentrations of the monoclonal antibodies or synthetic peptides, for incubation at 37° C. for one hour.
The culture medium was discarded from the plate, and all the wells were rinsed twice with D-MEM containing 0.25% BSA. The adherent cells were fixed and stained with 0.5% crystal violet in 20% methanol for 30 minutes.
All the wells were rinsed three times with water, and the adherent cells were then solubilized into 20% acetic acid. The resulting supernatant recovered from each well was analyzed with an immunoreader, to measure the absorbance at 590 nm to determine the relative count of the cells adhering to the well. […]

[3] = system: murine NIH3T3 cell adhesion to mOPN/de-GST; test: Inhibition of NIH3T3 cell adhesion to murine OPN (mOPN/de-GST); type: cell-based, mouse; settings: peptide 100 μg/ml; FIG. 7
From the text: It was examined by the method described in the reference (S. Kon et al., (2002): J. Cell. Biochem., 84(2), 420-432) as to whether or not the M5 antibody might inhibit cell adhesion to OPN. As the OPN, the full-length murine OPN was used, from which the GST moiety had preliminarily been removed with PreScission protease (Amersham Pharmacia Biotech, Tokyo, Japan) (referred to as “mOPN/de-GST” hereinafter) was used. As the cell, murine NIH3T3 cell was used.

[4] = system: α9-transformed SW480 cell adhesion to vitronectin; test: Adhesion of α9-transformed SW480 cell to vitronectin; type: cell-based, human; settings: 1 μg/ml vitronectin; 200 μM peptide; FIG. 2A

Row | Compound | Overall effect in mouse arthritis model (arthritis score, onset of arthritis, leg edema) [1] | Arthritis score ([1]; day 3) | Arthritis score ([1]; day 4) | Arthritis score ([1]; day 5) | Arthritis score ([1]; day 6) | Volume of leg edema ([1]; Foreleg) [mL] | Volume of leg edema ([1]; Hind leg) [mL] | Body weight change ([1]; day 0 to day 3 post-dosing) [g] | Quantity of feed intake ([1]; day 0 to day 3 post-dosing) [g/mouse/day] | Body weight change ([1]; day 3 to day 6 post-dosing) [g] | Quantity of feed intake ([1]; day 3 to day 6 post-dosing) [g/mouse/day] | Inhibition of TIG-7 adhesion to OPN by peptide [2] | Inhibition of NIH3T3 adhesion to mOPN/de-GST by peptide [3] | Inhibition of adhesion between vitronectin and α9-transformed SW480 cell by peptide [4]
1 | CN(Cc1cnc2nc(N)nc(N)c2n1)c1ccc(C(=O)N[C@@H](CCC(=O)O)C(=O)O)cc1 [MTX] | almost no pharmaceutical efficacy | 0.8 ± 0.4 | 1.8 ± 0.7 | 6.0 ± 0.6 | 6.0 ± 0.6 | 0.047 ± 0.003 | 0.132 ± 0.003 | -1.5 | 0.8 | -1.8 | 2.1 | – | – | –
2 | GRGDSP | – | – | – | – | – | – | – | – | – | – | – | apparently inhibited | apparently inhibited | inhibited
